Laboratory results taken from publication PMC3521869 (Journal of medicinal chemistry, 2012).
Bridge positions count the residues as written; N and C are the ends. Square brackets hold non-standard residues; d marks the D form. 2Nal = N[C@@H](Cc1ccc2ccccc2c1)C(=O)O; Cit = NC(=O)NCCC[C@H](N)C(=O)O

Assay: Fraction bound to serum proteins
Assay type: in vitro ADME
Conditions: human

“cyclo([2Nal]CY[Cit]KVCPKILQRCRRDSDCPGACICRGNGYCGSYR[Cit]CRG[dP]RR) (disulfide 2-38, 7-24, 14-26, 20-32) [MCo-CVX-5c]” showed a fraction unbound of under 0.01.
